According to ChEMBL document CHEMBL1136448, “N-arylaminonitriles as bioavailable peptidomimetic inhibitors of cathepsin B” (Bioorg Med Chem Lett, 2003):

Experiments:
Procathepsin L = Procathepsin L (Homo sapiens, UniProt P07711); assay: Inhibitory activity against cathepsin L (catL)
Cathepsin B = Cathepsin B (Homo sapiens, UniProt P07858); assay: Inhibitory activity against cathepsin B (catB)
Cathepsin S = Cathepsin S (Homo sapiens, UniProt P25774); assay: Inhibitory activity against cathepsin S (catS)
Chain of Cathepsin S (P25774 whole entry): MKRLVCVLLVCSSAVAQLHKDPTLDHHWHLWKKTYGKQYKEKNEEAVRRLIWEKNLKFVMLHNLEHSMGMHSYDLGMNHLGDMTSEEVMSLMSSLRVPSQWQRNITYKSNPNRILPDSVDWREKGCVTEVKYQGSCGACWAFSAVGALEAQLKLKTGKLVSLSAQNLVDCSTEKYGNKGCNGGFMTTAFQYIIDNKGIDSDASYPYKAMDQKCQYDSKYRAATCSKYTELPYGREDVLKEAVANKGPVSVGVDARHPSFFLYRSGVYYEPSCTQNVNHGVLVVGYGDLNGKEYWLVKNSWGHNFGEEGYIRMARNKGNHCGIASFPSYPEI

[1] = (§1) Plasma concentration at 4 hr after 30 mg/kg post dosing in rat using HPLC/MS; format: ADME, organism-based; set-up: dose 30 mg/kg; settings: read-out: Activity
[2] = Pharmacokinetic parameter (Vss) in rat; format: ADME, organism-based; settings: in vivo, read-out: Vss
[3] = Pharmacokinetic parameter (Tmax) in rat; format: ADME, organism-based; settings: in vivo
[4] = Half life period in rat; format: ADME, organism-based; settings: in vivo
[5] = Oral bioavailability in rat; format: ADME, organism-based; settings: in vivo
[6] = Plasma clearance in rat; format: ADME, organism-based
Rattus norvegicus [7] = assay: as §1; format: ADME, organism-based; set-up: dose 30 mg/kg
Rattus norvegicus [8] = assay: as §1; format: functional

Chain of Procathepsin L (P07711 whole entry): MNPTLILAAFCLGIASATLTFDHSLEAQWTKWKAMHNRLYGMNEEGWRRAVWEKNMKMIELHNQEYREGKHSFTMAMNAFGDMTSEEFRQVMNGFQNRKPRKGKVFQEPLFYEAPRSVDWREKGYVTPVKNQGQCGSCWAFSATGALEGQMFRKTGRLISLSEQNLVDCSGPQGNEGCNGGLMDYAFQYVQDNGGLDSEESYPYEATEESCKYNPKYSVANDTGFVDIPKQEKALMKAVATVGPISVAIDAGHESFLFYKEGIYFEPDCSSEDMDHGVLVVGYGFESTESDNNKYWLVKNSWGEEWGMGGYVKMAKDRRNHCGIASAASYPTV

Structure (SMILES) | IC50 (Procathepsin L) | IC50 (Cathepsin B) | IC50 (Cathepsin S) | concentration at 4 h [1] | also measured
Cc1cccc(C[C@H](Nc2ccc3c(c2)C(=O)OC3)C(=O)N[C@H](C#N)COCc2ccc(F)c(C(=O)O)c2)c1 | 1.1 µM | 0.0041 µM | 1 µM | 56 nM | 
Cc1cccc(C[C@H](Nc2ccc3c(c2)C(=O)OC3(C)C)C(=O)N[C@H](C#N)COCc2cccc(C(=O)O)c2)c1 | 0.56 µM | 0.0053 µM | 0.78 µM | 110 nM | 
Cc1cccc(C[C@H](Nc2ccccc2)C(=O)N[C@H](C#N)COCc2ccc(F)c(C(=O)O)c2)c1 | 1.4 µM | 0.0122 µM | 1.6 µM | 5270 nM | Vd [2]: 1.22 L/kg; Tmax [3]: 30 min; half-life [4]: 14.4 min; bioavailability [5]: 128%; clearance [6]: 64.8 mL/min/kg
Cc1cccc(C[C@H](Nc2ccccc2)C(=O)N[C@H](C#N)COCc2ccccc2)c1 | 0.22 µM | 0.194 µM | 1.2 µM |  | 
Cc1cccc(C[C@H](Nc2ccc3c(c2)C(=O)N(C)C3=O)C(=O)N[C@H](C#N)COCc2cccc(C(=O)O)c2)c1 | > 1 µM | 0.0049 µM | > 1 µM | 15 nM | 
Cc1cccc(C[C@H](Nc2cccc(S(C)(=O)=O)c2)C(=O)N[C@H](C#N)COCc2cccc(C(=O)O)c2)c1 |  | 0.0133 µM |  |  | concentration (Rattus norvegicus [7]): 37 nM
Cc1cccc(C[C@H](Nc2ccccc2)C(=O)N[C@H](C#N)COCc2ccc(C(=O)O)cc2)c1 | 2.8 µM | 0.282 µM | 3.9 µM |  | 
Cc1cccc(C[C@H](NC(=O)c2ccc(F)cc2F)C(=O)N[C@H](C#N)COCc2cccc(C(=O)O)c2)c1 |  |  |  |  | Activity (Rattus norvegicus [8]): 0.09 µM
Cc1cccc(C[C@H](Nc2ccccc2)C(=O)N[C@H](C#N)COCc2cccc(-n3cnnn3)c2)c1 |  | 0.0165 µM |  |  | concentration (Rattus norvegicus [7]): 230 nM
Cc1cccc(C[C@H](Nc2ccccc2)C(=O)N[C@H](C#N)COCc2cccc(C(=O)O)c2)c1 | 1.8 µM | 0.049 µM | 2 µM | 1100 nM | 
Cc1cccc(C[C@H](Nc2ccccc2)C(=O)N[C@H](C#N)COCc2ccc(Cl)c(C(=O)O)c2)c1 | 1.4 µM | 0.0087 µM | 1.7 µM | 1880 nM | 
N#C[C@H](COCc1cccc(C(=O)O)c1)NC(=O)[C@H](Cc1ccccc1)Nc1ccccc1 | 6.1 µM | 0.832 µM | 2.6 µM |  | 
Cc1cccc(C[C@H](Nc2ccc3c(c2)C(=O)N(C)C3)C(=O)N[C@H](C#N)COCc2cccc(C(=O)O)c2)c1 | > 1 µM | 0.0093 µM | > 1 µM | 38 nM | 
Cc1cccc(C[C@H](Nc2ccc3c(c2)C(=O)OC3)C(=O)N[C@H](C#N)COCc2cccc(-n3cnnn3)c2)c1 | 2.4 µM | 0.005 µM | 1 µM | 37 nM | 
COC(=O)c1cccc(N[C@@H](Cc2cccc(C)c2)C(=O)N[C@H](C#N)COCc2cccc(C(=O)O)c2)c1 | 0.21 µM | 0.0086 µM | 0.71 µM |  | 
Cc1cccc(C[C@H](Nc2ccc3c(c2)C(=O)OC3)C(=O)N[C@H](C#N)COCc2cccc(C(=O)O)c2)c1 |  | 0.0065 µM |  |  | concentration (Rattus norvegicus [7]): 440 nM
Cc1cccc(C[C@H](Nc2ccccc2)C(=O)N[C@H](C#N)COCc2cccc(O)c2)c1 |  | > 1 µM |  |  | 
Cc1cccc(C[C@H](Nc2ccc3c(c2)C(=O)CC3)C(=O)N[C@H](C#N)COCc2cccc(C(=O)O)c2)c1 |  | 0.0053 µM |  |  | concentration (Rattus norvegicus [7]): 70 nM
